Results on one compound are retold here after PMC8909834, “An Orally Bioavailable and Highly Efficacious Inhibitor of CDK9/FLT3 for the Treatment of Acute Myeloid Leukemia” (Cancers, 2022).

Common to all, as to test: Kinase Hotspot radiolabel assay
Holding throughout (assay type): biochemical
Common to all, as to settings: read-out: % Residual Activity

For one assay, the target named is T1, CK1g1 (Homo sapiens, UniProt Q9HCP0).
T1 construct: purchased Reaction Biology Corporation (Kinase HotSpot)
The method, boiled down: (§1)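 Inhibition measured by a radiolabel Hotspot kinase assay as part of a 369-kinase specificity panel, with the compound at 1 µM. Kinases inhibited by more than 90% went on to Ki determination.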

The target in the next assay is T2, FLT1/VEGFR1 (Homo sapiens, UniProt P17948).
T2 construct: purchased Reaction Biology Corporation (Kinase HotSpot)
Put shortly: as §1

The target in the next assay is T3, GSK3a (Homo sapiens, UniProt P49840).
T3 construct: purchased Reaction Biology Corporation (Kinase HotSpot)
The method, boiled down: as §1

For the next assay, the target named is T4, LCK (Homo sapiens, UniProt P06239).
T4 construct: purchased Reaction Biology Corporation (Kinase HotSpot)
The method, boiled down:
as §1

The target in a further assay is T5, MEKK2 (Homo sapiens, UniProt Q9Y2U5).
T5 construct: purchased Reaction Biology Corporation (Kinase HotSpot)
Put shortly:
as §1

The next assay addresses T6, PEAK1 (Homo sapiens, UniProt Q9H792).
T6 construct: purchased Reaction Biology Corporation (Kinase HotSpot)
The method, boiled down:
as §1

The target in another assay is T7, PKN1/PRK1 (Homo sapiens, UniProt Q16512).
T7 construct: purchased Reaction Biology Corporation (Kinase HotSpot)
The method, boiled down:
as §1

The next assay addresses T8, RIPK2 (Homo sapiens, UniProt O43353).
T8 construct: purchased Reaction Biology Corporation (Kinase HotSpot)
The method, boiled down:
as §1

The target in the next assay is T9, WNK3 (Homo sapiens, UniProt Q9BYP7).
T9 construct: purchased Reaction Biology Corporation (Kinase HotSpot)
The method, boiled down:
as §1

A further assay addresses T10, c-MET (Homo sapiens, UniProt P08581).
T10 construct: purchased Reaction Biology Corporation (Kinase HotSpot)
The method, boiled down: as §1

T6 sequence (Q9H792 whole entry): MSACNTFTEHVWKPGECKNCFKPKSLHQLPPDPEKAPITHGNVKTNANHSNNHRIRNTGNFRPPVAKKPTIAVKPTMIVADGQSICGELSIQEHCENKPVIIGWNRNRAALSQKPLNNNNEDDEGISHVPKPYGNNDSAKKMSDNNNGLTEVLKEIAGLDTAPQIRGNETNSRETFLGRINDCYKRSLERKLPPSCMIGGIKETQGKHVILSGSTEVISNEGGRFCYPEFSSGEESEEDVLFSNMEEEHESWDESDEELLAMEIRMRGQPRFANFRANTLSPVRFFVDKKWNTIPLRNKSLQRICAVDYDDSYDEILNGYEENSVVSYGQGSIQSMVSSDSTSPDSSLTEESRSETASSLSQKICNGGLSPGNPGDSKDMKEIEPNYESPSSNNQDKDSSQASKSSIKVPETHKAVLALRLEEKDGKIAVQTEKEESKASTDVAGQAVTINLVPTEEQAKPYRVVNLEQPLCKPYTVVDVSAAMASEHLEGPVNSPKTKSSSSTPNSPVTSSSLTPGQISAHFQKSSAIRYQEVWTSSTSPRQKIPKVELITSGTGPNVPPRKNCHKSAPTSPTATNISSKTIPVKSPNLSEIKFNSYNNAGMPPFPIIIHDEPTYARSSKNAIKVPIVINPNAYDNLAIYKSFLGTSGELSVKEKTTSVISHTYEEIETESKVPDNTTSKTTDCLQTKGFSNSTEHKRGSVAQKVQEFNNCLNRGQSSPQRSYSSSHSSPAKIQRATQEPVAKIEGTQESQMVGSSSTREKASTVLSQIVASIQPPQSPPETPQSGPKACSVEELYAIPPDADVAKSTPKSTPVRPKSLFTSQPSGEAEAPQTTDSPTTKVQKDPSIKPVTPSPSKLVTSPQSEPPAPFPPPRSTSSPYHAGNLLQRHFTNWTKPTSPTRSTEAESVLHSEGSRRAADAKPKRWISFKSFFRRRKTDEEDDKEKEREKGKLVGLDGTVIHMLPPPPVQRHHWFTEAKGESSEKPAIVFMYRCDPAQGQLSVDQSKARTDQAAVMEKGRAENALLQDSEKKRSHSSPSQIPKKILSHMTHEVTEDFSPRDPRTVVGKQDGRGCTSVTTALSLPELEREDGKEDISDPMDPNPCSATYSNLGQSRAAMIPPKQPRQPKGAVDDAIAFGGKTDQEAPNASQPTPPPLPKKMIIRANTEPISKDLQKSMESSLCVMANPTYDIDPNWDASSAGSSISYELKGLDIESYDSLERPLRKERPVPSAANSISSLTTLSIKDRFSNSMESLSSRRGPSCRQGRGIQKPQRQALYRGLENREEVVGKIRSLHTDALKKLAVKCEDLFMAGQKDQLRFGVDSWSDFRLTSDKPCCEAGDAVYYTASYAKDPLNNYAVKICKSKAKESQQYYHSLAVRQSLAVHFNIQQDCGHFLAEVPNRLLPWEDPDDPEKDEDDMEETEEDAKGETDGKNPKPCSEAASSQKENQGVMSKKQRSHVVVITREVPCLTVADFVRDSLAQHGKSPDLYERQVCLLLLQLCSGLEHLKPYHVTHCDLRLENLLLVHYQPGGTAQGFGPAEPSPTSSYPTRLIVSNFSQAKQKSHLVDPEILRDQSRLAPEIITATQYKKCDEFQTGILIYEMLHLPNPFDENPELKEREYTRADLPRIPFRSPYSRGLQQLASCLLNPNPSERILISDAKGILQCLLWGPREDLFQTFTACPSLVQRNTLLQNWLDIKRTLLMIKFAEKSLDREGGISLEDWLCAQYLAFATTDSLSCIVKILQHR
T10 sequence (P08581 25-1390): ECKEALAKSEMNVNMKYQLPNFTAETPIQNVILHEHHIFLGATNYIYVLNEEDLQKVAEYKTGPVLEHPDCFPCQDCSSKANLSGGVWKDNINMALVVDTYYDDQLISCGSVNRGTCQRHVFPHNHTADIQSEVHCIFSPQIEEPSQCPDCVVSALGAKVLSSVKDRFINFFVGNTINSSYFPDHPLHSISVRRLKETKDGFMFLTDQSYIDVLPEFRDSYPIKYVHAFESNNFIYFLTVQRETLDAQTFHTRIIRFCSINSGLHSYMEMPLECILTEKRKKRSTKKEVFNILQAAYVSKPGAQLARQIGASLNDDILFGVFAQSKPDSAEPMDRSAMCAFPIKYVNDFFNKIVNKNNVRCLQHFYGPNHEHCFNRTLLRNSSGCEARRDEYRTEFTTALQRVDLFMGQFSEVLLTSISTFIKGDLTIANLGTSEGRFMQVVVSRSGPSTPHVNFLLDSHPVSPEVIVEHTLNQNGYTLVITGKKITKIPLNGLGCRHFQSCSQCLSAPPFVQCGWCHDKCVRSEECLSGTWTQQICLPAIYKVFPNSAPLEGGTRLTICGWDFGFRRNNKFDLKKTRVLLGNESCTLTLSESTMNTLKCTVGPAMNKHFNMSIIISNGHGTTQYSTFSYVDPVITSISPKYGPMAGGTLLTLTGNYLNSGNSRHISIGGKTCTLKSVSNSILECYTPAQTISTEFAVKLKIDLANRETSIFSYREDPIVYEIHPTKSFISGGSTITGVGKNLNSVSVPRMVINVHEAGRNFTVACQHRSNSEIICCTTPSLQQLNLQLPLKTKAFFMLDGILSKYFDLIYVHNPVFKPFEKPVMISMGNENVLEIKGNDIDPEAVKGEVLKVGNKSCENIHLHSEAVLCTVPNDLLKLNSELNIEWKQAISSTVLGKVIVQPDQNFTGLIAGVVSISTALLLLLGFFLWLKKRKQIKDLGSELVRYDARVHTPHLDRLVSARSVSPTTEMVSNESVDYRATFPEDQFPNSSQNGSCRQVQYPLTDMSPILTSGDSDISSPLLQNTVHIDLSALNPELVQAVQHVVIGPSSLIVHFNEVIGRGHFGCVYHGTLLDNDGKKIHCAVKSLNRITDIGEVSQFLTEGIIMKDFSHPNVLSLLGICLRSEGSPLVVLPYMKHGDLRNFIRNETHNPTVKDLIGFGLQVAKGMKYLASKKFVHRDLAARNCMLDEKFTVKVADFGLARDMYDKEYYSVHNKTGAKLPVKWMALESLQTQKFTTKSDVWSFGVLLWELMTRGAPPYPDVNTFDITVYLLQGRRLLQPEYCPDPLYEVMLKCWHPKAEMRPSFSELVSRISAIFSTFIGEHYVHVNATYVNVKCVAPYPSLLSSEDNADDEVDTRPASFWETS
T9 sequence (Q9BYP7 whole entry): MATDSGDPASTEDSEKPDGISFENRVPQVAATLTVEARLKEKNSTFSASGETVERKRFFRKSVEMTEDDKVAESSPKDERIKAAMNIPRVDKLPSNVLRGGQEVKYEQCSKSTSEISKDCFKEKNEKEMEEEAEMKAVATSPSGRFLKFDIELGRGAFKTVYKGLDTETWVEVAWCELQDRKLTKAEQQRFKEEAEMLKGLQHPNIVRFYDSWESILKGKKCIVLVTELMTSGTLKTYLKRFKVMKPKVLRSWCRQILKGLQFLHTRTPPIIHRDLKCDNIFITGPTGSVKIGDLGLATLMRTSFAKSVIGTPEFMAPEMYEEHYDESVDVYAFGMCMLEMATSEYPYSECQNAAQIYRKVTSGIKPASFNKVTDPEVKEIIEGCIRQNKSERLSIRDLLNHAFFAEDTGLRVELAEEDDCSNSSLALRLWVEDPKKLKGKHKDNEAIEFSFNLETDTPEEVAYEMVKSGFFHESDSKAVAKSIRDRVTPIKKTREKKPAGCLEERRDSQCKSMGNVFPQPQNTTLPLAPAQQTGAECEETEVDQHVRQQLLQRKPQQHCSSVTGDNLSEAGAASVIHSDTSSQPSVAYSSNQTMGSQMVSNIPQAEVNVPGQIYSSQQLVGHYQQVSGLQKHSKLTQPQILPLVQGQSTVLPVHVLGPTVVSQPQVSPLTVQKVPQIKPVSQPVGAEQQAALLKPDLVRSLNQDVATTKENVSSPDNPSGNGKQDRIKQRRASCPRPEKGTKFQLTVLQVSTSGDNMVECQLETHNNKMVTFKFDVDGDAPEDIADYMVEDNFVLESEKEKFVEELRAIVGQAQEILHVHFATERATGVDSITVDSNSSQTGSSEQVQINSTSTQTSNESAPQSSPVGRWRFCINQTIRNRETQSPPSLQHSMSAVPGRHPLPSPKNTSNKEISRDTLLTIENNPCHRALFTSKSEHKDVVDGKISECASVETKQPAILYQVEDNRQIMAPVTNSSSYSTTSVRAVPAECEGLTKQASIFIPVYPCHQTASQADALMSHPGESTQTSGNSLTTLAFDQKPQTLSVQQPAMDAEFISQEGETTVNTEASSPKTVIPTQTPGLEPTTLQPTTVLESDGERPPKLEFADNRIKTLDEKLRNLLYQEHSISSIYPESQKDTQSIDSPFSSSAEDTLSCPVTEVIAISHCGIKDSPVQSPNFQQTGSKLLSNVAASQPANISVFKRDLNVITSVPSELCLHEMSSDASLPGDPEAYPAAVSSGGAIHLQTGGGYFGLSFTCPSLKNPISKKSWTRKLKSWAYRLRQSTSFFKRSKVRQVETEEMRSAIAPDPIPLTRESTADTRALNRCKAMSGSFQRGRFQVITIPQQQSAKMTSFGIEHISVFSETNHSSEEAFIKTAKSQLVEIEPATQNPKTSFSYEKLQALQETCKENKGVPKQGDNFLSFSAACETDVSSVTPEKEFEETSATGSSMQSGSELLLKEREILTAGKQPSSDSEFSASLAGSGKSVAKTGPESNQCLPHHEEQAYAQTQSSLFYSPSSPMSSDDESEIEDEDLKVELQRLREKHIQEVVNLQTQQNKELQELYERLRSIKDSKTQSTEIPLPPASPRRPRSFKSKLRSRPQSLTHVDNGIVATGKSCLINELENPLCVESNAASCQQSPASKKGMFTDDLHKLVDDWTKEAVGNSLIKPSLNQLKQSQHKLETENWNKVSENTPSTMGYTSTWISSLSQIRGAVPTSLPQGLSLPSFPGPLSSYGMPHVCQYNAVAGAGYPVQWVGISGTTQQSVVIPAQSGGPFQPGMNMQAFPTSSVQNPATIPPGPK

As to `Cc1cnc(N[C@H]2CC[C@H](N)CC2)nc1-c1cnc2ccc(-c3ccccc3)cn12` [CDDD11-8], the remaining activity at 1 µM at CK1g1 worked out at 62.8%; on FLT1/VEGFR1 it was 53.4%; on GSK3a, 70.1%; on LCK, 72.5%; at MEKK2, 105%; at PEAK1, 57.3%. The remaining activity at 1 µM on PKN1/PRK1 stood at 63.8%; at RIPK2, 78.1%; on WNK3 it was 84%; at c-MET it was 103%.
